{"source": "patent US20060148763A1", "about": "“Compounds and methods for regulating triglyceride levels” (priority 2005, published 2006)", "key": {"[1]": {"test_system": "serum triglyceride levels", "test": "Rabbit hypercholesteremic model (2% cholesterol diet, 7 weeks): serum triglycerides", "type": "in vivo, Male New Zealand white rabbits", "description": "The anti-atherogenic effects of P5P alone and in combination with simvastatin in a rabbit hypercholesteremic model were determined. The study compared the effects of P5P and simvastatin alone and in combination on atherosclerotic lesion formation, lipid profile (total cholesterol, LDL, HDL, triglycerides and oxidized LDL), homocysteine levels and various markers of inflammation (CRP, IL-1β, IL-6, IFN-γ and TNF-α).\nAnimals—Male New Zealand white rabbits 2.0-3.0 kg.\nAnimal Feed—The normocholesterol diet is Co-op Complete Rabbit Feed manufactured by Federated Co-operatives Limited (Saskatchewan). The 2% cholesterol diet is Test Diet 0009459 MRab/2% Chol 3/16 manufactured by Purina Mills (USA).\nThe rabbits were fed the normocholesterol and 2% cholesterol diet ad libitum. All animals received a timothy cube after blood sampling. […]\nGroup 3: Hypercholesterol diet+P5P 10 mg/kg/day\nGroup 4: Hypercholesterol diet+simvastatin 5 mg/kg/day\nGroup 5: Hypercholesterol diet+P5P 10 mg/kg/day+simvastatin 5 mg/kg/day\nThe rabbits were fed a normocholesterol or hypercholesterol diet for a total of 7 weeks. The normocholesterol rabbits were treated once per day with 1 ml of ethanol and 5 ml of RO water via a nasogastric tube. The hypercholesterol animals were treated once per day with either P5P (10 mg/kg), simvastatin (5 mg/kg) or a combination of P5P and simvastatin (P5P 10 mg/kg; simvastatin 5 mg/kg) via a nasogastric tube. The P5P was dissolved in 5 ml of 0.05 N NaOH so that the pH of the solution is approximately 7. The simvastatin was dissolved in 1 ml of anhydrous ethanol.\nFive ml of blood was collected from the marginal ear vein of the rabbits at 0, 2, 4 and 6 weeks. Prior to blood collection the animals were sedated with 1 mg/kg of acepromazine. Following collection, the serum was separated. The serum is aliquoted (500 μl) and frozen at −80° C. until used for the assaying various lipids (total cholesterol, LDL, HDL, triglycerides, oxidized LDL) and cytokines (CRP, IL-1β, IL-6, IFN-γ and TNF-α).\nAt 7 weeks, the animals were anesthetized and 10 ml of blood was collected. Then the animals were euthanized, and the heart and thoracic aorta removed. The hearts and aortas were frozen in liquid nitrogen or an ethanol dry ice bath and stored at −80° C. until analyzed.\nTest Articles—P5P (pyridoxal 5′-phosphate monohydrate) was purchased from Sigma (P82870). Simvastatin is obtained from ACIC Fine Chemicals Inc. Two test compound vials were provided for each animal for each day. The first vial (small) was diluted in 1 ml of anhydrous ethanol. The second vial was diluted in either 5 ml of RO water or 5 ml of 0.05 N NaOH. The diluent for each vial was clearly marked on the vial. The test solutions were prepared fresh each day just before they were administered to the animals. The stock P5P was stored in a refrigerator at 4° C. under low light conditions. The simvastatin was stored following the manufacture recommendations. The individual test vials were stored in a refrigerator at 4° C. under low light conditions.\nTest Article(s) Dose, Route of Administration and Duration—The rabbits were treated orally with the drugs, once per day for a total of 7 weeks. The contents of vial one (small; 1 ml) were given to the animals first, followed by the contents of vial 2 (large; 5 ml). The test compound treatments were followed by a 5 ml RO water chaser."}, "[2]": {"test_system": "serum triglyceride levels", "test": "14-week open-label forced dose-escalation study of P5P in hypertensive diabetic patients: triglyceride level", "type": "in vivo, human", "conditions": "for Triglycerides, Percentage Difference: average Visit 12 vs Visit 1", "description": "Overview—The study was a 14-week, open-label, forced, dose-escalation study of the efficacy and safety of P5P administered once daily over a dose range of 250 mg to 750 mg, for the treatment of mild to moderate hypertension and hyperlipidemia, in patients with coexisting diabetes mellitus.\nPatient Definition—Patients meeting all of the inclusion criteria and none of the exclusion criteria were eligible for enrollment. The primary inclusion criteria were hypertension and diabetes. […] Other than having diabetes and hypertension, patients must have been in good health for their age. A history and physical examination must have been within age-related normal limits, or if abnormal, considered clinically insignificant in the opinion of the investigator. Laboratory tests (CBC with differential, prothrombin and partial thrombo-plastin times, platelet count, and urinalysis and blood chemistry panel), must have been normal, or if abnormal, considered clinically insignificant.\nExclusion criteria included the presence or history (past 12 months) of accelerated or malignant hypertension, as evidenced by hemorrhage and/or exudate, and/or papilloedema on funduscopic examination. Patients having a history of angioedema of the face, lips, tongue, glottis or larynx when treated with ACE inhibitors were excluded. Patients having a diastolic BP>114 mm Hg, and/or systolic BP>200 mm Hg at screening were excluded. Patients with similar readings at the end of the placebo lead-in period were dropped from further participation in the study. During the placebo lead-in period patients who had signs of bradycardia (<45 bpm) or a resting heart rate of >100 bpm were not advanced to the next stage of the study, but rather dropped from further participation.\nExclusion criteria included the presence or history (past 6 months) of myocardial infarction or cerebrovascular accident and clinically significant cardiac pathology such as congestive heart failure, cardio-genic shock, non-controlled arrhythmias, acute myocarditis or pericarditus, significant valvular or congestive heart disease and unstable angina pectoris; presence or evidence of atrioventricular block (second/third degree), or sick sinus syndrome, or any other conduction defect or abnormality including the presence/history of atrial fibrillation or flutter, associated with pre-excitation syndrome; clinically significant gastrointestinal disease, renal insufficiency (serum creatinine […]), hepatic disease, or electrolyte imbalance (serum potassium <3.5 or >5.3 mmol/L, serum sodium <136->145 mmol/L); presence of bronchial asthma or chronic obstructive pulmonary disease; or the presence of any clinically significant concomitant disease that in the opinion of the investigator could interfere with the patient's participation in the study, or confound the outcome variables. Patients having any clinically significant concomitant disease that could interfere with the patient's participation in the study, or confound the outcome variables were excluded. Patients with a history of alcohol abuse or illicit drug use in the 12 months prior to beginning this protocol were excluded. Patients with a terminal illness were excluded. Patients with an arm circumference >41 cm were excluded. Pregnant females, women who were breast-feeding or women of child-bearing potential must have used adequate contraception. Patients who have had therapy with an investigational compound within 30 days prior to entry into the study were excluded. The use of the following medications was cause for exclusion, each had to have been safely discontinued prior to the placebo lead-in phase of the study, and must been withheld until the protocol had been completed: all diuretics and antihypertensive drugs (including beta-blockers, calcium-channel blockers, vasodilators, ACE inhibitors), MAO inhibitors, all anti-arrhythmic drugs, digitalis, major tranquilizers, antidepressants, cimetidine, corticosteroids, and antineoplastics. […]"}, "[3]": {"conditions": "hypercholesterol diet, n = 5, P5P 10 mg/kg/day, simvastatin 5 mg/kg/day oral"}, "[4]": {"conditions": "rabbits fed the hypercholesterol diet, 7 weeks"}}, "note": "Values joined by “and” are separate entries in the source; they are usually repeats but may differ in a detail not shown here. Identical values can stand only once.", "data": [{"compound": "Cc1ncc(COP(=O)(O)O)c(C=O)c1O", "note": "[P5P, pyridoxal-5′-phosphate]", "values": [{"measurement": "average serum triglyceride levels as fraction of the levels observed in the control rabbits", "setting": "[1]; end of the 7 week study period", "value": "about ⅓"}, {"measurement": "Triglycerides, Week 2", "setting": "[1]; [3]", "value": 1.244, "unit": "mmol/L"}, {"measurement": "Triglycerides, Week 4", "setting": "[1]; [3]", "value": 1.530, "unit": "mmol/L"}, {"measurement": "Triglycerides, Week 6", "setting": "[1]; [3]", "value": 1.066, "unit": "mmol/L"}, {"measurement": "Triglycerides, Week 7", "setting": "[1]; hypercholesterol diet, n = 5, P5P 10 mg/kg/day, simvastatin 5 mg/kg/day oral, end of study", "value": 1.038, "unit": "mmol/L"}, {"measurement": "Triglycerides, Week 0", "setting": "[1]; hypercholesterol diet, n = 5, P5P 10 mg/kg/day, simvastatin 5 mg/kg/day oral, start of study", "value": 1.168, "unit": "mmol/L"}, {"measurement": "comparison of serum triglyceride reduction between treatments", "setting": "[1]; [4]", "value": "more effective than simvastatin treatment"}, {"measurement": "effect on serum triglyceride levels vs untreated control rabbits", "setting": "[1]; [4]", "value": "effective in reducing serum triglyceride levels"}, {"measurement": "Triglycerides, Percentage Difference", "setting": "[2]; Table 2", "value": "−22.1", "unit": "%"}, {"measurement": "Triglycerides, Visit 1, Average", "setting": "[2]; Table 2, average of 11 patients, screening, before treatment", "value": 246.1, "unit": "mg/dL"}, {"measurement": "Triglycerides, Visit 12, Average", "setting": "[2]; Table 2, average of 11 patients, week 14", "value": 191.5, "unit": "mg/dL"}, {"measurement": "Triglycerides, Percentage Difference", "setting": "[2]; Table 3, elevated triglycerides (>150 mg/dL)", "value": "−25.7", "unit": "%"}, {"measurement": "Triglycerides, Visit 1, Average", "setting": "[2]; Table 3, elevated triglycerides (>150 mg/dL), average of 7 patients, screening", "value": 326.9, "unit": "mg/dL"}, {"measurement": "Triglycerides, Visit 12, Average", "setting": "[2]; Table 3, elevated triglycerides (>150 mg/dL), average of 7 patients, week 14", "value": 242.9, "unit": "mg/dL"}, {"measurement": "Triglycerides, Visit 1", "setting": "[2]; Table 3, patients with elevated triglycerides (>150 mg/dL), individual patients, screening, before treatment", "value": "150 mg/dL and 601 mg/dL and 188 mg/dL and 180 mg/dL and 530 mg/dL and 442 mg/dL and 197 mg/dL"}, {"measurement": "Triglycerides, Visit 12", "setting": "[2]; Table 3, patients with elevated triglycerides (>150 mg/dL), individual patients, week 14", "value": "166 mg/dL and 268 mg/dL and 160 mg/dL and 305 mg/dL and 286 mg/dL and 302 mg/dL and 213 mg/dL"}, {"measurement": "reduced triglyceride levels by (average)", "setting": "[2]; hypertensive diabetic patients, end of 14 week study", "value": "approximately 22.1%"}, {"measurement": "reduced triglyceride levels by (average)", "setting": "[2]; patients having elevated triglyceride levels (>150 mg/dL) prior to the study", "value": "approximately 25.7%"}]}]}
